Laboratory results reported in patent EP0051819A2, “Tetra-substituted benzene derivatives, their preparation and pharmaceutical preparations containing them” (F. HOFFMANN-LA ROCHE & CO. Aktiengesellschaft, priority 1980, dated 1982).
Values after ≈ are worked out from the molar mass of the structure shown. Read-outs that look alike come from different tables or passages of the source.

Experiments:
Rhinovirus HGP = experiment: Antiviral activity: inhibition of viral cytopathogenic effect (C.P.E.) in HeLa cell culture; type: cell-based; conditions: for IC50: Enterovirus, HeLa, 48 h; for antivirale Aktivität: qualitative statement in the description, no virus named
Experimental: (§1) Eine Suspension von HeLa-Zellen (6 x 10^4) wurde mit Rhinovirus HGP (3 x 10^3 Plaque-bildende Einheiten, PFU) gemischt und auf eine Mikrotestplatte gebracht, die die zu testenden Verbindungen in zunehmender Verdünnung enthielten. Die Zellen wurden dann in Eagle's Minimalnährlösung, die 2% Kalbsserum, 1% Tryptosephosphatbrühe, 100 ug/ml Streptomycin und 20 Einheiten/ml Penicillin G enthielt, kultiviert. Der virale zytopathogenische Effekt (C.P.E.) und die Cytotoxizität wurden mikroskopisch nach 2 Tagen Kultivierung bei 33°C beobachtet. Die antivirale Aktivität (IC50) der Testverbindungen ist diejenige Konzentration,.bei der C.P.E. um 50% gegenüber der Kontrollkultur gehemmt war. Die Cytotoxizität ist als Minimalkonzentration angegeben, bei der toxische Symptome beobachtet wurden.(cytotoxische Dosis).

[1] = Cytotoxicity in HeLa cells, observed microscopically in the antiviral test; type: cell-based; conditions: human, hela cells
Experimental: as §1

[2] = concentration inhibiting C.P.E. by 50% versus control culture, HeLa cells, 2 days at 33°C, read-out: IC50
[3] = minimal concentration at which toxic symptoms were observed (cytotoxische Dosis), 2 days at 33°C, read-out: Cytotoxizität

IC50 (Rhinovirus HGP; [2]) [µg/mL]	Structure (SMILES)	MCC at 48 h [1, 3] [µg/mL]	antivirale Aktivität (Rhinovirus HGP)	MCC at 48 h [1] [µg/mL]	IC50 (Rhinovirus HGP) [µg/mL]
0.1 (≈ 0.257 µM)	CCOC(=O)Oc1cc(OC)cc(OC)c1C(=O)NCc1ccc(OC)cc1	> 8	–	–	–
0.01 to 0.03 (≈ 0.0303 to 0.0908 µM)	CCOc1cc(OC)cc(O)c1C(=O)CCc1ccc(OC)cc1 [1-(2-Ethoxy-6-hydroxy-4--methoxyphenyl)-3-(4-methoxy-phenyl)-1-propanon]	0.9	–	–	–
0.01 to 0.03 (≈ 0.0333 to 0.0999 µM)	COc1cc(O)c(C(=O)CCc2ccc(C)cc2)c(OC)c1 [1-(2-Hydroxy-4,6-dimethoxy-phenyl)-3-(4-methylphenyl)-1--propanon]	> 8	–	–	–
0.03 to 0.1 (≈ 0.0908 to 0.303 µM)	COc1cc(O)c(C(=O)CCc2ccc3c(c2)OCO3)c(OC)c1 [1-(2-Hydroxy-4,6-dimethoxy-phenyl)-3-[3,4-(methylendioxy)-phenyl]-1-propanon]	> 8	–	–	–
0.01 to 0.03 (≈ 0.0301 to 0.0902 µM)	COc1cc(O)c(C(=O)CCc2ccc(SC)cc2)c(OC)c1 [1-(2-Hydroxy-4,6-dimethoxy-phenyl)-3-[4-(methylthio)-phenyl]-1-propanon]	8	–	–	–
0.01 to 0.03 (≈ 0.0303 to 0.0908 µM)	COc1ccc(C(=O)CC(=O)c2c(O)cc(OC)cc2OC)cc1 [1-(2-Hydroxy-4,6-dimethoxyphenyl)-3-(4-methoxyphenyl)-1,3-propandion]	8	–	–	–
0.9 (≈ 3.1 µM)	COc1cc(O)c(C(=O)CCc2ccc(C)o2)c(OC)c1 [1-(2-Hydroxy-4,6-dimethoxyphenyl)-3-(5-methyl-2-furyl)-l-propanon]	> 8	–	–	–
0.9 (≈ 3.06 µM)	COc1cc(O)c(C(=O)CCC2CCC(C)O2)c(OC)c1 (stereo not drawn) [1-(2-Hydroxy-4,6-dimethoxyphenyl)-3-(tetrahydro-5-methyl-2-furyl)-1-propanon]	> 8	–	–	–
0.03 to 0.1 (≈ 0.0871 to 0.29 µM)	COc1ccc(CCC(=O)c2c(O)cc(OC(C)C)cc2OC)cc1 [1-(2-Hydroxy-4-isopropoxy-6-methoxyphenyl)-3-(4-methoxyphenyl)-1-propanon]	8	–	–	–
0.004 to 0.01 (≈ 0.0116 to 0.029 µM)	CCCOc1cc(O)c(C(=O)CCc2ccc(OC)cc2)c(OC)c1 [1-(2-Hydroxy-6-methoxy-4-propoxyphenyl)-3-(4-methoxyphenyl)-1-propanon]	2.7	–	–	–
–	COc1ccc(CCC(=NO)c2c(O)cc(OC)cc2OC)cc1 [1-(2-Hydroxy--4,6-dimethoxyphenyl)-3-(4-methoxyphenyl)-1-propanon-oxim]	> 10	–	–	–
0.002 (≈ 0.00577 µM)	CCOc1cc(O)c(C(=S)CCc2ccc(OC)cc2)c(OC)c1 [1-(4-Ethoxy-2-hydroxy-6-methoxyphenyl)-3-(4-methoxyphenyl)-1-propanthion]	–	besonders starke antivirale Aktivität	2.7	–
0.1 (≈ 0.301 µM)	COc1ccc(CCC(=O)c2c(O)cc(SC)cc2OC)cc1 [1-[2-Hydroxy-6-methoxy-4-(methylthio)-phenyl]-3-(4-methoxyphenyl)-1-propanon]	1	–	–	–
–	CCOc1cc(OC)c(C(=O)NCc2ccc(OC)cc2)c(OP(=O)(O)O)c1 [2--[(p-Anisylamino)carbonyl]-5-ethoxy-3-methoxyphenyl-dihydrogenphosphat]	> 8	besonders starke antivirale Aktivität	–	0.01 to 0.03 (≈ 0.0243 to 0.0729 µM)
0.03 (≈ 0.102 µM)	COc1cc(O)c(C(=O)NCc2cccs2)c(OC)c1 [2-Hydroxy-4,6-dimethoxy-N-(2--thenyl)benzamid]	8	–	–	–
2.7 (≈ 9.77 µM)	COc1cc(O)c(C(=O)NCc2ccc[nH]2)c(OC)c1 [2-Hydroxy-4,6-dimethoxy-N-(2-pyrrolylmethyl)benzamid]	> 8	–	–	–
0.03 to 0.1 (≈ 0.0989 to 0.33 µM)	COc1ccc(NC(=O)c2c(O)cc(OC)cc2OC)cc1 [2-Hydroxy-4,6-dimethoxy-N-(4--methoxyphenyl)benzamid]	> 10	–	–	–
0.003 to 0.01 (≈ 0.00905 to 0.0302 µM)	COc1cc(O)c(C(=O)NCc2ccc3c(c2)OCO3)c(OC)c1 [2-Hydroxy-4,6-dimethoxy-N-(m,p--methylenedioxybenzyl)benzamid]	> 8	–	–	–
0.002 (≈ 0.0063 µM)	COc1cccc(CNC(=O)c2c(O)cc(OC)cc2OC)c1 [2-Hydroxy-4,6-dimethoxy-N-(m--methoxybenzyl)benzamid]	> 8	–	–	–
0.01 to 0.03 (≈ 0.0332 to 0.0996 µM)	COc1cc(O)c(C(=O)NCc2ccc(C)cc2)c(OC)c1 [2-Hydroxy-4,6-dimethoxy-N-(p--methylbenzyl)benzamid]	8	–	–	–
0.002 (≈ 0.0063 µM)	COc1ccc(CNC(=O)c2c(O)cc(OC)cc2OC)cc1 [2-Hydroxy-4,6-dimethoxy-N-(p-methoxybenzyl)benzamid]	8	–	–	–

IC50 (Rhinovirus HGP; [2]) [µg/mL]	Structure (SMILES)	MCC at 48 h [1, 3] [µg/mL]	antivirale Aktivität (Rhinovirus HGP)	MCC at 48 h [1] [µg/mL]	IC50 (Rhinovirus HGP) [µg/mL]
0.3 (≈ 0.864 µM)	COc1cc(O)c(C(=O)NCc2ccc(OC)c(OC)c2)c(OC)c1 [2-Hydroxy-4,6-dimethoxy-N--(m,p-dimethoxybenzyl)benzamid]	8	–	–	–
0.004 to 0.01 (≈ 0.0135 to 0.0336 µM)	COc1cc(O)c(C(=O)NCC2CCCS2)c(OC)c1 (stereo not drawn) [2-Hydroxy-4,6-dimethoxy-N--(tetrahydro-2-thenyl)benzamid]	8	–	–	–
0.9 (≈ 4.26 µM)	CNC(=O)c1c(O)cc(OC)cc1OC [2-Hydroxy-4,6-dimethoxy-N--methylbenzamid]	> 8	–	–	–
0.9 (≈ 3.12 µM)	COc1cc(O)c(C(=O)NCc2ccncc2)c(OC)c1 [2-Hydroxy-4,6-dimethoxy-N-[(4-pyridyl)methyl]benzamid]	8	–	–	–
0.002 (≈ 0.006 µM)	COc1cc(O)c(C(=O)NCc2ccc(SC)cc2)c(OC)c1 [2-Hydroxy-4,6-dimethoxy-N-[p--(methylthio)benzyl]benzamid]	> 8	besonders starke antivirale Aktivität	–	–
0.001 to 0.002 (≈ 0.00269 to 0.00538 µM)	COc1ccc(CNC(=O)c2c(O)cc(OCC=C(C)C)cc2OC)cc1 [2-Hydroxy-6-methoxy-4-(3-methyl-2-butenyloxy)-N-(p-methoxybenzyl)benzamid]	> 8	besonders starke antivirale Aktivität	–	–
0.001 to 0.003 (≈ 0.0029 to 0.00869 µM)	CCCOc1cc(O)c(C(=O)NCc2ccc(OC)cc2)c(OC)c1 [2-Hydroxy-6-methoxy-4-propoxy-N-(p-methoxybenzyl)benzamid]	> 20	besonders starke antivirale Aktivität	–	–
0.1 to 0.3 (≈ 0.3 to 0.9 µM)	COc1cc(O)c(C(=O)NCc2ccc(OC)c(O)c2)c(OC)c1 [2-Hydroxy-N-(m-hydroxy-p-methoxy-benzyl)-4,6-dimethoxybenzamid]	2.7	–	–	–
0.3 (≈ 0.989 µM)	COc1cc(O)c(C(=O)NCc2ccc(O)cc2)c(OC)c1 [2-Hydroxy-N-(p-hydroxybenzyl)--4,6-dimethoxybenzamid]	> 8	–	–	–
2.7 (≈ 5.63 µM)	COc1ccc(CNC(=O)c2c(OC)cc(OC)cc2O[C@@H]2O[C@H](CO)[C@@H](O)[C@H](O)[C@H]2O)cc1 [2-[(p-Anisyl-amino)carbonyl]-3,5-dimethoxyphenyl-ß-D-glucopyranosid]	> 10	–	–	–
0.3 (≈ 0.803 µM)	CCOc1cc(OC)c(C(=O)NCc2ccc(OC)cc2)c(OC(C)=O)c1 [2-[(p-Anisyl-amino)carbonyl]-5-ethoxy-3-methoxypheny]acetat]	> 8	–	–	–
0.03 (≈ 0.0712 µM)	COc1ccc(CNC(=O)c2c(OC)cc(OC)cc2OC(=O)c2ccccc2)cc1 [2-[(p-Anisylamino)carbonyl]-3,5-dimethoxyphenyl-benzoat]	> 8	–	–	–
–	COc1ccc(CNC(=O)c2c(OC)cc(OC)cc2OP(=O)(O)O)cc1 [2-[(p-Anisylamino)carbonyl]-3,5-dimethoxyphenyl-dihydrogenphosphat]	> 8	–	–	0.006 to 0.01 (≈ 0.0151 to 0.0252 µM)
0.3 to 0.9 (≈ 0.514 to 1.54 µM)	CCCCCCCCCCCCCCCCCC(=O)Oc1cc(OC)cc(OC)c1C(=O)NCc1ccc(OC)cc1 [2-[(p-Anisylamino)carbonyl]-3,5-dimethoxyphenyl-octadecanoat]	> 8	–	–	–
2.7 (≈ 4.17 µM)	COc1ccc(CNC(=O)c2c(OC)cc(OC)cc2O[C@@H]2O[C@H](COC(C)=O)[C@@H](OC(C)=O)[C@H](OC(C)=O)[C@H]2OC(C)=O)cc1 [2-[(p-Anisylamino)carbonyl]-3,5-dimethoxyphenyl-tetra-O-acetyl-ß-D-glucopyranosid]	> 10	–	–	–
0.002 (≈ 0.00447 µM)	C=CCOc1ccc(CNC(=O)c2c(OC)cc(OC)cc2OC(=O)c2ccccc2)cc1 [2-{[[p-(Allyloxy)benzyl]amino]carbonyl}-3,5-dimethoxyphenyl-benzoat]	2.7	besonders starke antivirale Aktivität	–	–
0.3 (≈ 0.492 µM)	C=CCOc1ccc(CNC(=O)c2c(OC)cc(OC)cc2OC(=O)CCCCCCCCCCCCCCCCC)cc1 [2-{[[p-(Allyloxy)benzyl]amino]carbonyl}-3,5-dimethoxyphenyl-octadecanoat]	> 8	–	–	–
0.1 (≈ 0.312 µM)	COc1cc(O)c(C(=O)CCc2ccc(Cl)cc2)c(OC)c1 [3-(4-Chlorophenyl)-1-(2-hydroxy--4,6-dimethoxyphenyl)-1--propanon]	10	–	–	–
0.002 (≈ 0.00582 µM)	C=CCOc1cc(O)c(C(=O)NCc2ccc(OC)cc2)c(OC)c1 [4-(Allyloxy)-2-hydroxy-6-methoxy-N-(p-methoxybenzyl)benzamid]	> 8	besonders starke antivirale Aktivität	–	–
0.01 (≈ 0.0288 µM)	CCOc1cc(O)c(C(=S)NCc2ccc(OC)cc2)c(OC)c1 [4-Ethoxy-2-hydroxy-6-methoxy-N-(p-methoxybenzyl)-thiobenzamid]	> 8	–	–	–
0.001 (≈ 0.00269 µM)	CCOc1cc(OC)c(C(=O)CCc2ccc(OC)cc2)c(OC(C)=O)c1 [5-Ethoxy-3-methoxy-2-[3-(4-methoxyphenyl)-propionyl]phenyl-acetat]	> 8	–	–	–
